Data published in patent US20180008587A1, “THIOHYDANTOIN ANDROGEN RECEPTOR ANTAGONISTS FOR THE TREATMENT OF CANCER” (Jaressen Pharmaceutica NV, priority 2016, published 2018).
Substitutions are numbered along the chain they refer to. Read-outs that look alike come from different tables or passages of the source.

Legend:
Format in all cases: cell-based
[1] = biological target: T1, wild-type Androgen Receptor (AR-wt) (Homo sapiens, UniProt P10275); assay: LNCaP-AR-wt ANT reporter assay (ARE firefly luciferase, antagonist mode); conditions: for IC50: antagonist mode, 400 pM R-1881 challenge, −Log10(IC50 [Molar]), read-out: LNCaP-AR-wt ANT pIC50 (converted); for Emax: read-out: LNCaP-AR-wt ANT MAX % Inh
T1 construct: expressed in transfected cells; host or cells: LNCaP (LNCaP AR (cs))
T1 sequence (P10275 1-920): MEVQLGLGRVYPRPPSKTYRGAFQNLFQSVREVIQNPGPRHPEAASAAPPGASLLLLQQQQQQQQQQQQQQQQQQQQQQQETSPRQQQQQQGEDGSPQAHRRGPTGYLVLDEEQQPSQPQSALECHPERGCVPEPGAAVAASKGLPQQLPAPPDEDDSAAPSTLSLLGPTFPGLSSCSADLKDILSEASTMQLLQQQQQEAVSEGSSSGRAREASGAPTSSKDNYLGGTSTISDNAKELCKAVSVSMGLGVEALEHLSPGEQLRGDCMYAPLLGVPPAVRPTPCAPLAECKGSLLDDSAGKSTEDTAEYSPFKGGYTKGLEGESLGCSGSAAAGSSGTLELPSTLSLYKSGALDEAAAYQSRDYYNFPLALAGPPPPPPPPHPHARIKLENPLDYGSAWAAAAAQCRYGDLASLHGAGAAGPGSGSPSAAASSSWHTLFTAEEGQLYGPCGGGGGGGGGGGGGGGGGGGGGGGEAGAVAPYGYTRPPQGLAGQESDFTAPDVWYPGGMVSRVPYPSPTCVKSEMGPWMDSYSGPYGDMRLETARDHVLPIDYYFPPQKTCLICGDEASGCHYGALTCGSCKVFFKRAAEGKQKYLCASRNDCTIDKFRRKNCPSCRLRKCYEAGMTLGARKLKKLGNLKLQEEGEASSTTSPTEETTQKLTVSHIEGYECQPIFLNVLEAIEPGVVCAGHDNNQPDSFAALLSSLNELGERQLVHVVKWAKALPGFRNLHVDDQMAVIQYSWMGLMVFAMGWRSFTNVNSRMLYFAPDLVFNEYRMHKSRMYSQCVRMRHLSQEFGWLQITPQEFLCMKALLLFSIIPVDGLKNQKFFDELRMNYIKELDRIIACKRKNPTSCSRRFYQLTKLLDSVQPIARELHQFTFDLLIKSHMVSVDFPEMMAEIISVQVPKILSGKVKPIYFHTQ
In short: (§1)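 Puromycin-selected LNCaP pools, grown in charcoal-stripped serum, were incubated 20-24 h at 37 °C with compounds, plus agonist challenge at 400 pM for wild-type and 600 pM for F876L.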

[2] = biological target: T1, wild-type Androgen Receptor (AR-wt); assay: LNCaP-AR-wt AG reporter assay (ARE firefly luciferase, agonist mode); conditions: for Emax: read-out: LNCaP-AR-wt AG MAX % Stim
In short: (§2)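 Puromycin-selected pooled LNCaP populations expressing AR-wt or AR-F876L are seeded in CSS medium and treated with compound for 20-24 h at 37 °C. For antagonist testing, agonist is added at 400 pM (WT) or 600 pM (F876L). Potency values derive from least-squares fitting of luminescence RLU.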

[3] = biological target: T2, F876L mutant Androgen Receptor (AR-F876L) (Homo sapiens, UniProt P10275, F877L); assay: LNCaP-AR-F876L ANT reporter assay (ARE firefly luciferase, antagonist mode); conditions: for Emax: read-out: LNCaP-AR-F876L ANT MAX % Inh; for IC50: read-out: LNCaP-AR-F876L ANT pIC50 (converted)
T2 construct: expressed in transfected cells; host or cells: LNCaP (LNCaP F876L)
T2 sequence (P10275 1-920 F877L): T1 sequence (P10275 1-920) with F877L
In short: as §1

[4] = biological target: T2, F876L mutant Androgen Receptor (AR-F876L); assay: LNCaP-AR-F876L AG reporter assay (ARE firefly luciferase, agonist mode); conditions: for Emax: read-out: LNCaP-AR-F876L AG MAX % Stim
In short: as §2

[5] = maximum % inhibition of R1881 control response over tested concentration range
[6] = agonist mode, −Log10(EC50 [Molar]), read-out: LNCaP-AR-wt AG pEC50 (converted)
[7] = maximum % stimulation (agonist response) over tested concentration range
[8] = agonist mode, −Log10(EC50 [Molar]), read-out: LNCaP-AR-F876L AG pEC50 (converted)

| SMILES | IC50 [1] [nM] | Emax [1, 5] [%] | EC50 [2, 6] [nM] | Emax [2, 7] [%] | Emax [3, 5] [%] | IC50 [3] [nM] | EC50 [4, 8] [nM] | Emax [4, 7] [%] | Emax [1] [%] | EC50 [2] [nM] | Emax [2] [%] | Emax [3] [%] | EC50 [4] [nM] | Emax [4] [%] |
| --- | --- | --- | --- | --- | --- | --- | --- | --- | --- | --- | --- | --- | --- | --- |
| Cc1ccc(CNC(=O)c2ccc(N3C(=S)N(c4cnc(C#N)c(C(F)(F)F)c4)C(=O)C34CCC4)cc2F)o1 [Cpd 26, 4-[6-[6-cyano-5-(trifluoromethyl)-3-pyridyl]-5-oxo-7-thioxo-6,8-diazaspiro[3.4]octan-8-yl]-2-fluoro-N-[(5-methyl-2-furyl)methyl]benzamide] | 813 | 97.9 | > 15100 | 1.1 | 97.9 | 891 | > 15100 | 0.3 | – | – | – | – | – | – |
| N#Cc1ccc(N2C(=S)N(c3cnc(C#N)c(C(F)(F)F)c3)C(=O)C23CCC3)cc1 [Cpd 120, 5-[8-(4-cyanophenyl)-5-oxo-7-thioxo-6,8-diazaspiro[3.4]octan-6-yl]-3-(trifluoromethyl)pyridine-2-carbonitrile] | 363 | 100 | > 15100 | 1.2 | 98.8 | 224 | > 15100 | 3.9 | – | – | – | – | – | – |
| Cc1cc(N2C(=O)C3(CCC3)N(c3ccc(OC4CCN(C)CC4)cc3)C2=S)cnc1C#N [Cpd 4, 3-methyl-5-[8-[4-[(1-methyl-4-piperidyl)oxy]phenyl]-5-oxo-7-thioxo-6,8-diazaspiro[3.4]octan-6-yl]pyridine-2-carbonitrile] | 1100 | 100 | > 15100 | 0.2 | 100 | 269 | > 15100 | -0.4 | – | – | – | – | – | – |
| N#Cc1ncc(N2C(=O)C3(CCC3)N(c3cccc(F)c3)C2=S)cc1C(F)(F)F [Cpd 90, 5-[8-(3-fluorophenyl)-5-oxo-7-thioxo-6,8-diazaspiro[3.4]octan-6-yl]-3-(trifluoromethyl)pyridine-2-carbonitrile] | 513 | 100 | > 15100 | 0.5 | 98.6 | 631 | > 15100 | 1.4 | – | – | – | – | – | – |
| N#Cc1ncc(N2C(=O)C3(CCC3)N(c3ccc(OCCN4CCCCC4)cc3F)C2=S)cc1C(F)(F)F [Cpd 91, 5-[8-[2-fluoro-4-[2-(1-piperidyl)ethoxy]phenyl]-5-oxo-7-thioxo-6,8-diazaspiro[3.4]octan-6-yl]-3-(trifluoromethyl)pyridine-2-carbonitrile] | 537 | 98.5 | > 15100 | 1.1 | 98.6 | 302 | > 15100 | 1.4 | – | – | – | – | – | – |
| CN(CCCNC(=O)c1ccc(N2C(=S)N(c3cnc(C#N)c(C(F)(F)F)c3)C(=O)C23CCC3)cc1F)C1CCCC1 [Cpd 64, 4-[6-[6-cyano-5-(trifluoromethyl)-3-pyridyl]-5-oxo-7-thioxo-6,8-diazaspiro[3.4]octan-8-yl]-N-[3-[cyclopentyl(methyl)amino]propyl]-2-fluoro-benzamide] | 282 | 98.9 | > 15100 | 1.2 | 98.1 | 174 | > 15100 | 0.7 | – | – | – | – | – | – |
| Cc1cc(N2C(=O)C3(CCC3)N(c3ccc(C(=O)Nc4ccccc4F)c(F)c3)C2=S)cnc1C#N [Cpd 11, 4-[6-(6-cyano-5-methyl-3-pyridyl)-5-oxo-7-thioxo-6,8-diazaspiro[3.4]octan-8-yl]-2-fluoro-N-(2-fluorophenyl)benzamide] | 676 | 101 | > 15100 | -0.1 | 99.9 | 295 | > 15100 | -0.1 | – | – | – | – | – | – |
| N#Cc1ncc(N2C(=O)C3(CCC3)N(c3ccc(C(=O)NCCCN4CCCC4=O)c(F)c3)C2=S)cc1C(F)(F)F [Cpd 37, 4-[6-[6-cyano-5-(trifluoromethyl)-3-pyridyl]-5-oxo-7-thioxo-6,8-diazaspiro[3.4]octan-8-yl]-2-fluoro-N-[3-(2-oxopyrrolidin-1-yl)propyl]benzamide] | 1200 | 99.3 | > 15100 | 0.3 | 96.5 | 398 | > 15100 | 0.3 | – | – | – | – | – | – |
| Cc1cc(N2C(=O)C3(CCC3)N(c3ccc(C(=O)Nc4ccc(Cl)cc4)c(F)c3)C2=S)cnc1C#N [Cpd 74, N-(4-chlorophenyl)-4-[6-(6-cyano-5-methyl-3-pyridyl)-5-oxo-7-thioxo-6,8-diazaspiro[3.4]octan-8-yl]-2-fluoro-benzamide] | 1150 | 94.1 | > 15100 | 0.6 | 93.8 | 759 | > 15100 | 1 | – | – | – | – | – | – |
| N#Cc1ncc(N2C(=O)C3(CCC3)N(c3ccc4ccccc4c3)C2=S)cc1C(F)(F)F [Cpd 18, 5-[8-(2-naphthyl)-5-oxo-7-thioxo-6,8-diazaspiro[3.4]octan-6-yl]-3-(trifluoromethyl)pyridine-2-carbonitrile] | 204 | – | – | – | – | 191 | – | – | 101 | > 15100 | -0.2 | 101 | > 15100 | 0 |
| COc1cc(F)ccc1N1C(=S)N(c2cnc(C#N)c(C(F)(F)F)c2)C(=O)C12CCC2 [Cpd 94, 5-[8-(4-fluoro-2-methoxy-phenyl)-5-oxo-7-thioxo-6,8-diazaspiro[3.4]octan-6-yl]-3-(trifluoromethyl)pyridine-2-carbonitrile] | 724 | 95 | > 15100 | 6 | 99.2 | 631 | > 15100 | 1.5 | – | – | – | – | – | – |
| N#Cc1ncc(N2C(=O)C3(CCC3)N(c3ccc(C(=O)NCc4cccnc4)c(F)c3)C2=S)cc1C(F)(F)F [Cpd 67, 4-[6-[6-cyano-5-(trifluoromethyl)-3-pyridyl]-5-oxo-7-thioxo-6,8-diazaspiro[3.4]octan-8-yl]-2-fluoro-N-(3-pyridylmethyl)benzamide] | 1260 | – | – | – | – | 407 | – | – | 99.2 | > 15100 | 1.5 | 97.4 | > 15100 | 0.8 |
